Results from EP4711365A1 (Shanghai Hansoh Biomedical Co., Ltd., priority 2023, dated 2024).

Columns and labels:
[1] = Pharmacokinetic assay in Wistar rats, oral; conditions: rat, plasma, 30 mg/kg
Protocol: Experimental objective: to study the pharmacokinetic behaviours of the compounds of the present invention in the body (plasma) of Wistar rats as test animals after oral administration at a dose of 30 mg/kg. • 2. Experimental scheme • 2.1 Test drugs: the examples of the present invention, prepared in house. • 2.2 Test animals: Wistar rats (female, 3 rats per group), from Beijing Vital River Laboratory Animal Technology Co., Ltd., with the animal production license no.
Solutol HS15 was melted in a water bath at 50-60°C, and then 50 mL of the melted Solutol HS15 was added to 450 mL of ultrapure water. The mixture was stirred and sonicated to obtain 500 mL of 10% Solutol HS15 solution. The compound was weighed, and according to the total administration volume, 30% PEG solution was first added. The mixture was shaken uniformly and sonicated until a clear solution was obtained. Subsequently, 70% (10% Solutol) in water was added, resulting in a colourless and clear solution with a concentration of 3.0 mg/mL.
2.4 Administration scheme: After overnight fasting, 3 female Wistar rats per group were administered orally (PO) at a dose of 30 mg/kg with an administration volume of 10 mL/kg.
• 1) To 50 uL of plasma sample was added 250 uL of acetonitrile for precipitation, and the mixture was mixed and then centrifuged at 4°C at 4000 rpm for 20 minutes. • 2) The treated supernatant solution was taken and subjected to LC/MS/MS to analyse the concentration of the test compounds. LC/MS/MS analysis instrument: AB Sciex API-4000 Qtrap-Shimadzu Controller-CBM20A.
• Chromatographic column: Waters Xbridge C18 3.5 um 2.1*50 mm • Mobile phase: solution A: 0.1% formic acid in water, and solution B: 0.1% formic acid in acetonitrile • Flow rate: 0.6 mL/min • Elution time: 0-3.5 minutes, with eluents as follows:

[2] = target: T1, human IL-17RA and IL-17A proteins (Homo sapiens, UniProt Q16552); experiment: Competitive ELISA: blocking of binding between human IL-17RA and IL-17A; conditions: coated IL-17A, IL-17RA 5 nM
T1 sequence (Q16552 24-155): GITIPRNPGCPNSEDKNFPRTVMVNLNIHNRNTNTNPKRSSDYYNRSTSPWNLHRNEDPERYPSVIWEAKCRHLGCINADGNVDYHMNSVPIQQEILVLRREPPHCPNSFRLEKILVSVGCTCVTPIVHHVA
Protocol: Test example 1 Assay for competitive binding effect between compounds of the present invention and human IL-17 receptor for ligand
1. Experimental objective: to quantitatively determine the blocking effect of the compound on the binding between human IL-17RA and IL-17A proteins using competitive ELISA under in vitro conditions. 2. Experimental instruments and reagents: 2.1 Instruments:
2.2 Reagents: 3. Experimental method: IL-17A at 0.0625 µg/mL was coated in a 96-well plate at 4°C overnight at 100 µL per well. The plate was washed with PBST (300 µL/well x 4), and then blocked at 24°C for 2 h by adding 300 µL of ELISA Blocker blocking buffer to each well. The plate was further washed under the same conditions. 80 µL of PBS solution containing 1% BSA and 10 µL of 10× test compound solution were added to each well and mixed uniformly, and then the mixture was incubated at room temperature for 1 hour. After that, 10 µL of IL-17RA solution was added to a final concentration of 5 nM and mixed uniformly, and then the mixture was incubated at 24°C for 1 h. The corresponding concentration and volume of DMSO solution without compounds was added to positive control wells, and 1% BSA solution without IL-17RA was added to negative control wells.
After the plate was washed four times, 100 µL of the anti-Fc tag HRP-conjugated antibody was added, and the mixture was incubated at 37°C for 1 h. After the plate was washed four times, 100 µL of TMB substrate was added to each well, and the mixture was incubated at 37°C in the dark. After colour development was completed, the reaction was terminated by adding 100 µL of stop solution to each well, and the absorbance was measured at wavelengths of 450 nm and 570 nm using a microplate reader.
• 1) Inhibition rate (%): The original data (OD450-OD570) was calculated according to the following formula to obtain the inhibition rate. Inhibition rate% = [(average value of positive control wells - value of sample wells)/(average value of positive control wells - average value of negative control wells)] × 100, where the positive control wells are wells without compounds, and the negative control wells are wells without IL-17RA protein solution. • 2) Curve fitting: Log(inhibitor) vs. response -- Variable slope (four parameters) in GraphPad Prism 8 was used for fitting equation analysis of the compound concentration and the corresponding inhibition rate, and the curve was fitted to obtain the IC50 value of the compound. The fitting calculation equation was Y = Bottom + (Top - Bottom) / (1 + 10^((LogIC50 - X) * HillSlope)).

[3] = system: Groα secretion by HT-29 cells; experiment: Inhibition of Groα secretion by HT-29 cells stimulated with IL-17A (ELISA); type: cell-based, Human; conditions: Homo sapiens, IL-17A 30 ng/ml, 48 hours, Groα in supernatant
Procedure, shortened: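 HT-29 cells (10,000/well) were cultured overnight, then given compound pre-mixed 30 min with IL-17A (final 30 ng/ml) and incubated 48 hours at 37°C. Groα in supernatant was measured by ELISA at 450 nm; inhibition relative to IL-17A-stimulated control, IC50 from four-parameter fit.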

Row | SMILES | AUC(0-t) [1] | Cmax [1] | Tmax [1] | half-life [1] | IC50 [2] | IC50 [3]
1 | CCc1nonc1C(=O)N[C@H](C(=O)Nc1ncc([C@@H](COC)N2CC(F)(F)CNC2=O)s1)[C@H]1CC[C@H](C)CC1 [Example 556] | 22100 ng·h/mL | 2390 ng/mL | 2 h | 2.3 h | 1.8 nM | 4.6 nM
2 | C[C@@H]1CN(C[C@H](c2cnc(NC(=O)[C@@H](NC(=O)C3(F)CC3)[C@H]3CC[C@H](C)CC3)s2)N2CC(F)(F)CNC2=O)C[C@H](C)O1 [Example 724] |  |  |  |  | 6 nM | 4 nM
3 | C[C@@H]1CN(C[C@H](c2cnc(NC(=O)[C@@H](NC(=O)C(F)(F)C3CC3)[C@H]3CC[C@H](C)CC3)s2)N2CC(F)(F)CNC2=O)C[C@H](C)O1 [Example 725] |  |  |  |  | 5.6 nM | 2.5 nM
4 | C[C@@H]1CN(C[C@H](c2cnc(NC(=O)[C@@H](NC(=O)C3(F)CC3)[C@H]3CC[C@H](C)CC3)s2)N2CC(F)(F)CNC2=O)C[C@@H](C)O1 [Example 726] |  |  |  |  | 4.8 nM | 1.8 nM
5 | C[C@@H]1CN(C[C@H](c2cnc(NC(=O)[C@@H](NC(=O)C(F)(F)C3CC3)[C@H]3CC[C@H](C)CC3)s2)N2CC(F)(F)CNC2=O)C[C@@H](C)O1 [Example 727] |  |  |  |  | 3.3 nM | 1.2 nM
6 | C[C@@H]1CN(C[C@H](c2cnc(NC(=O)[C@@H](NC(=O)C3(F)CC3)[C@H]3CC[C@H](C)CC3)s2)N2CC(F)(F)CNC2=O)[C@@H](C)CO1 [Example 731] | 14300 ng·h/mL | 1840 ng/mL | 2 h | 2.3 h | 6.6 nM | 6 nM
7 | C[C@H]1CN(C[C@H](c2cnc(NC(=O)[C@@H](NC(=O)C3(F)CC3)[C@H]3CC[C@H](C)CC3)s2)N2CC(F)(F)CNC2=O)[C@@H](C)CO1 [Example 734] |  |  |  |  | 2.9 nM | 2 nM
8 | C[C@@H]1CN(C[C@H](c2cnc(NC(=O)[C@@H](NC(=O)C3(F)CC3)[C@H]3CC[C@H](C)CC3)s2)N2CC(F)(F)CNC2=O)[C@H](C)CO1 [Example 736, N-((S)-2-((5-((R)-1-(5,5-difluoro-2-oxotetrahydropyrimidin-1(2H)-yl)-2-((2R,5R)-2,5-dimethylmorpholino)ethyl)thiazol-2-yl)amino)-1-((1r,4S)-4-methylcyclohexyl)-2-oxoethyl)-1-fluorocyclopropane-1-carboxamide] | 10800 ng·h/mL | 1310 ng/mL | 2 h | 2.4 h | 3.6 nM | 1 nM
9 | CC1CCC(C(NC(=O)C2(F)CC2)C(=O)Nc2ncc(C(CN3C(C)COCC3C)N3CC(F)(F)CNC3=O)s2)CC1 (stereo not shown) [Example 739] | 10300 ng·h/mL | 1940 ng/mL | 2 h | 2.5 h | 5 nM | 3 nM
10 | C[C@H]1CC[C@H]([C@H](NC(=O)C2(F)CC2)C(=O)Nc2ncc([C@@H](CN3CCC(F)CC3)N3CC(F)(F)CNC3=O)s2)CC1 [Example 760] |  |  |  |  | 7 nM | 5.7 nM
11 | C[C@H]1CC[C@H]([C@H](NC(=O)C2(F)CC2)C(=O)Nc2ncc([C@@H](CN3CCC(F)(F)CC3)N3CC(F)(F)CNC3=O)s2)CC1 [Example 763, N-((S)-2-((5-((R)-1-(5,5-difluoro-2-oxotetrahydropyrimidin-1(2H)-yl)-2-(4,4-difluoropiperidin-1-yl)ethyl)thiazol-2-yl)amino)-1-((1r,4S)-4-methylcyclohexyl)-2-oxoethyl)-1-fluorocyclopropane-1-carboxamide] | 15900 ng·h/mL | 1480 ng/mL | 4 h | 3.4 h | 6 nM | 4.5 nM
12 | C[C@H]1CC(F)(F)CCN1C[C@H](c1cnc(NC(=O)[C@@H](NC(=O)C2(F)CC2)[C@H]2CC[C@H](C)CC2)s1)N1CC(F)(F)CNC1=O [Example 764] | 11700 ng·h/mL | 1090 ng/mL | 4 h | 4.1 h | 7 nM | 7 nM
13 | C[C@H]1CC[C@H]([C@H](NC(=O)C2(F)CC2)C(=O)Nc2ncc([C@@H](CN3CCC(C(F)F)CC3)N3CC(F)(F)CNC3=O)s2)CC1 [Example 770] | 11600 ng·h/mL | 1350 ng/mL | 4 h | 3.5 h | 7 nM | 3.4 nM
14 | COC1CCN(C[C@H](c2cnc(NC(=O)[C@@H](NC(=O)C3(F)CC3)[C@H]3CC[C@H](C)CC3)s2)N2CC(F)(F)CNC2=O)CC1 [Example 777] |  |  |  |  | 8 nM | 5.3 nM
15 | [2H]C([2H])([2H])O[C@@H]1CCN(C[C@H](c2cnc(NC(=O)[C@@H](NC(=O)C3(F)CC3)[C@H]3CC[C@H](C)CC3)s2)N2CC(F)(F)CNC2=O)C[C@@H]1F [Example 781] |  |  |  |  | 5 nM | 10 nM
16 | [2H]C([2H])([2H])O[C@H]1CCN(C[C@H](c2cnc(NC(=O)[C@@H](NC(=O)C3(F)CC3)[C@H]3CC[C@H](C)CC3)s2)N2CC(F)(F)CNC2=O)C[C@H]1F [Example 782] |  |  |  |  | 4 nM | 4 nM
17 | [2H]C([2H])([2H])OC1(C)CCN(C[C@H](c2cnc(NC(=O)[C@@H](NC(=O)C3(F)CC3)[C@H]3CC[C@H](C)CC3)s2)N2CC(F)(F)CNC2=O)CC1 [Example 787] | 18800 ng·h/mL | 2330 ng/mL | 2 h | 2.4 h | 9 nM | 8.9 nM
18 | C[C@@H]1CN(C[C@H](c2cnc(NC(=O)[C@@H](NC(=O)C3(F)CC3)[C@H]3CC[C@H](C)CC3)s2)N2CC(F)(F)CNC2=O)CCO1 [Example 1012, N-((S)-2-((5-((R)-1-(5,5-difluoro-2-oxotetrahydropyrimidin-1(2H)-yl)-2-((R)-2-methylmorpholino)ethyl)thiazol-2-yl)amino)-1-((1r,4S)-4-methylcyclohexyl)-2-oxoethyl)-1-fluorocyclopropane-1-carboxamide] | 14200 ng·h/mL | 2220 ng/mL | 2 h | 2.3 h | 6 nM | 3 nM
19 | C[C@H]1CN(C[C@H](c2cnc(NC(=O)[C@@H](NC(=O)C3(F)CC3)[C@H]3CC[C@H](C)CC3)s2)N2CC(F)(F)CNC2=O)CCO1 [Example 1013] |  |  |  |  | 9 nM | 9 nM
20 | C[C@H]1COCCN1C[C@H](c1cnc(NC(=O)[C@@H](NC(=O)C2(F)CC2)[C@H]2CC[C@H](C)CC2)s1)N1CC(F)(F)CNC1=O [Example 1014, N-((S)-2-((5-((R)-1-(5,5-difluoro-2-oxotetrahydropyrimidin-1(2H)-yl)-2-((S)-3-methylmorpholino)ethyl)thiazol-2-yl)amino)-1-((1r,4S)-4-methylcyclohexyl)-2-oxoethyl)-1-fluorocyclopropane-1-carboxamide] | 12800 ng·h/mL | 1670 ng/mL | 4 h | 2.4 h | 7 nM | 8 nM
21 | C[C@@H]1COCCN1C[C@H](c1cnc(NC(=O)[C@@H](NC(=O)C2(F)CC2)[C@H]2CC[C@H](C)CC2)s1)N1CC(F)(F)CNC1=O [Example 1015] |  |  |  |  | 4 nM | 6 nM
